Reference: patent US9394284B2, “Compounds act at multiple prostaglandin receptors giving a general anti-inflammatory response” (Allergan, Inc., priority 2010, dated 2016)

Tests used:
Type in all cases: cell-based
[1] = target: T1, human prostanoid FP receptor (Homo sapiens, UniProt P43088); test: FLIPR Ca2+ signaling antagonist assay, FP receptor stable cell line; details: HEK-293 EBNA stable cell line; standard agonist 17-phenyl-PGF2α; NA = inactive (no antagonism or Kb 10,000 nM); PAg, Ag not defined
T1 construct: expressed in transfected cells
Outline: (§1)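 Peak Fluo-4 fluorescence (ex 470–495, em 515–575 nm) was read for 3.5 min on FLIPR after agonist injection and expressed relative to 10^−6 M standard agonist. Cells were HEK-293 EBNA transfectants. Test compound was added 4.5 min beforehand at 0.1–30 μM, or 0.067–1 μM for TP.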

[2] = target: T2, human prostanoid DP1 receptor (Homo sapiens, UniProt Q13258); test: FLIPR Ca2+ signaling antagonist assay, DP1 receptor stable cell line; details: HEK-293 EBNA stable cell line; standard agonist BW 245C; NA = inactive (no antagonism or Kb 10,000 nM); PAg, Ag not defined
T2 construct: expressed in transfected cells
T2 sequence (Q13258 1-359): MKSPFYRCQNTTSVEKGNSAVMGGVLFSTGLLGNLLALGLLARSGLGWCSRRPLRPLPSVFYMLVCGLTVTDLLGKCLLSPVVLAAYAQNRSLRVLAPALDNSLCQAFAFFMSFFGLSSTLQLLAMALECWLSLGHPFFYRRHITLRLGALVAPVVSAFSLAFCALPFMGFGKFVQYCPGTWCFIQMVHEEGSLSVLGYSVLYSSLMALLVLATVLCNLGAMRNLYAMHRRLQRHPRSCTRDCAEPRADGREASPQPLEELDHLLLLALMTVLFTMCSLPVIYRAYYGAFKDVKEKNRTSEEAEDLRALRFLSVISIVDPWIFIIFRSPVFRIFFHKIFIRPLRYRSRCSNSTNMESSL
Outline: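 Functional antagonism measured by Ca2+ flux at 37 °C. Agonist ranges were 10^−11 to 10^−5 M, or 10^−12 to 10^−6 M for TP with U-46619; PGE2 for EP1/EP3, BW 245C for DP1. Compound spanned 0.1–30 μM except TP, 0.067–1 μM.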

[3] = target: T3, human prostanoid EP1 receptor (Homo sapiens, UniProt P34995); test: FLIPR Ca2+ signaling antagonist assay, EP1 receptor stable cell line; details: HEK-293 EBNA stable cell line; standard agonist PGE2; NA = inactive (no antagonism or Kb 10,000 nM); PAg, Ag not defined
T3 construct: expressed in transfected cells
T3 sequence (P34995 1-402): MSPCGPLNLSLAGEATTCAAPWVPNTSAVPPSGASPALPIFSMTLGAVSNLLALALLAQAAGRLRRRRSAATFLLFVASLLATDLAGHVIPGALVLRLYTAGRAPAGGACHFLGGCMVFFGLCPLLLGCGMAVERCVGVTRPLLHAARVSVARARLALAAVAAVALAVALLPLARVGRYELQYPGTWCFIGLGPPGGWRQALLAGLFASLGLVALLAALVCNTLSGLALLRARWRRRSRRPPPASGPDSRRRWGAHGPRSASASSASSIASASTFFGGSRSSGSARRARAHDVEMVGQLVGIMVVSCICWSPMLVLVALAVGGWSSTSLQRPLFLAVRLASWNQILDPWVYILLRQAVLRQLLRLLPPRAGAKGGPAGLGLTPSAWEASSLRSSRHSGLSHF
Outline: as §1

[4] = target: T4, human prostanoid EP2 receptor (Homo sapiens, UniProt P43116); test: FLIPR Ca2+ signaling antagonist assay, EP2 receptor stable cell line; details: HEK-293 EBNA stable cell line; standard agonist PGE2; NA = inactive (no antagonism or Kb 10,000 nM); PAg, Ag not defined
T4 construct: expressed in transfected cells
Description: (§2) The above compounds were tested for PG antagonist activity as follows using human recombinant prostanoid receptor (DP1, EP1-4, FP, IP and TP) stable cell lines:
(§3) In order to measure the response of Gs and Gi coupled prostanoid receptors as a Ca^2+ signal, chimeric G protein cDNAs were used. Stable cell lines over-expressing human prostanoid DP1, EP1-4, FP, IP, and TP receptors were established as follows:
(§4) Briefly, human prostanoid DP1, EP2, and EP4 receptor cDNAs were co-transfected with chimeric Gqs cDNA containing a haemagglutanin (HA) epitope; human prostanoid EP3 receptors were co-transfected with chimeric Gqi-HA; human EP1, FP, IP, and TP receptor cDNAs were expressed with no exogenous G-proteins. Gqs and Gqi chimeric cDNAs (Molecular Devices, Sunnyvale, Calif., U.S.A.), as well as cDNAs of prostanoid receptors, were cloned into a pCEP4 vector with a hygromycin B selection marker. Transfection into HEK-293 EBNA (Epstein-Barr virus nuclear antigen) cells was achieved by the FuGENE 6 transfection Reagent (Roche Applied Science, Indianapolis, Ind., USA). Stable transfectants were selected according to hygromycin resistance. Because Gqs and Gqi contained an HA epitope, G-protein expression was detected by Western blotting analysis using anti-mouse HA monoclonal antibody and horseradish peroxidase (HRP)-conjugated secondary antibody, while functional expression of prostanoid receptors was detected by FLIPR screening (Matias et al., 2004). These stable cell lines were validated using previously published antagonists at 10 μM against serial dilutions of standard agonists by FLIPR functional assays for Ca^2+ Signaling (as described below).
(§5) Ca^2+ signaling studies were performed using a FLIPR TETRA system (Molecular Devices, Sunnyvale, Calif., USA) in the 384-format. This is a high-throughput instrument for cell-based assays to monitor Ca^2+ signaling associated with GPCRs and ion channels. Cells were seeded at a density of 5×10^4 cells/well in BioCoat poly-D-lysine coated, black wall, clear bottom 384-well plates (BD Biosciences, Franklin lakes, NJ, USA) and allowed to attach overnight in an incubator at 37° C. The cells were then washed twice with HBSS-HEPES buffer (Hanks' balanced salt solution without bicarbonate and phenol red, 20 mM HEPES, pH 7.4) using an ELx405 Select CW Microplate Washer (BioTek, Winooski, Vt., USA). After 60 min of dye-loading in the dark using the Ca^2+-sensitive dye Fluo-4AM (Invitrogen, Carlsbad, Calif., USA), at a final concentration of 2×10^−6M, the plates were washed 4 times with HBSS-HEPES buffer to remove excess dye and leaving 50 μl of buffer in each well. The plates were then placed in the FLIPR TETRA instrument and allowed to equilibrate at 37° C. AGN-211377 was added in a 25 μl volume to each well to give final concentrations of 0.1 μM, 0.3 μM, 1 μM, 3 μM, 10 μM, and 30 μM; or 0.067 μM, 0.1 μM, 0.2 μM, 0.3 μM, 0.67 μM, and 1 μM for cells over-expressing TP receptors. After 4.5 minutes, a 7-point serial dilution of the standard agonist for the corresponding receptor, in a 25 μl volume was injected at the final concentrations from 10^−11M to 10^−5M in 10-fold serial dilution increments for cells expressing human recombinant DP1, EP1, EP2, EP3, EP4, FP, and IP receptors. The dose range for the standard agonist for human recombinant TP receptors was from 10^−12 M to 10^−6 M. HBSS-HEPES buffer was used as the negative control for the standard agonists. Cells were excited with LED (light emitting diode) excitation at 470-495 nm and emission was measured through an emission filter at 515-575 nm. Assay plates were read for 3.5 minutes using the FLIPR^TETRA. The peak increase in fluorescence intensity was recorded for each well. On each plate, negative controls, dose response of positive controls, and co-treatments of antagonist-agonist for each dose were in triplicates.
(§6) Standard agonists were as follows: DP=BW 245C, EP1-EP4=PGE2, FP=17-phenyl-PGF2α, IP=Cicaprost, and TP=U-46619. […]

[5] = target: T5, human prostanoid EP4 receptor (Homo sapiens, UniProt P35408); test: FLIPR Ca2+ signaling antagonist assay, EP4 receptor stable cell line; details: HEK-293 EBNA stable cell line; standard agonist PGE2; NA = inactive (no antagonism or Kb 10,000 nM); PAg, Ag not defined
T5 construct: expressed in transfected cells
Outline: as §1

[6] = target: T6, human prostanoid IP receptor (Homo sapiens, UniProt P43119); test: FLIPR Ca2+ signaling antagonist assay, IP receptor stable cell line; details: HEK-293 EBNA stable cell line; standard agonist Cicaprost; NA = inactive (no antagonism or Kb 10,000 nM); PAg, Ag not defined
T6 construct: expressed in transfected cells
Description: as §2, §3, §4, §5, §6

[7] = target: T7, human prostanoid TP receptor (Homo sapiens, UniProt P21731); test: FLIPR Ca2+ signaling antagonist assay, TP receptor stable cell line; details: HEK-293 EBNA stable cell line; standard agonist U-46619; NA = inactive (no antagonism or Kb 10,000 nM); PAg, Ag not defined
T7 construct: expressed in transfected cells
T7 sequence (P21731 1-343): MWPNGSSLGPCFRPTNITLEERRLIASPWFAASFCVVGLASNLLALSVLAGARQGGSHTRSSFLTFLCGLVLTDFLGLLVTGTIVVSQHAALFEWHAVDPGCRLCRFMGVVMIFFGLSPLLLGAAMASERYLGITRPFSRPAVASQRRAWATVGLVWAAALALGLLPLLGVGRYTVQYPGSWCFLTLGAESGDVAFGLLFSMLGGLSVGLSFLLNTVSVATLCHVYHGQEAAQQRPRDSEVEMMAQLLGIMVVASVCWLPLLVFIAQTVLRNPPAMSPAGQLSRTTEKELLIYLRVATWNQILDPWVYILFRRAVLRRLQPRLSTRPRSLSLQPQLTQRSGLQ
Outline: as §1

T5 sequence (P35408 whole entry): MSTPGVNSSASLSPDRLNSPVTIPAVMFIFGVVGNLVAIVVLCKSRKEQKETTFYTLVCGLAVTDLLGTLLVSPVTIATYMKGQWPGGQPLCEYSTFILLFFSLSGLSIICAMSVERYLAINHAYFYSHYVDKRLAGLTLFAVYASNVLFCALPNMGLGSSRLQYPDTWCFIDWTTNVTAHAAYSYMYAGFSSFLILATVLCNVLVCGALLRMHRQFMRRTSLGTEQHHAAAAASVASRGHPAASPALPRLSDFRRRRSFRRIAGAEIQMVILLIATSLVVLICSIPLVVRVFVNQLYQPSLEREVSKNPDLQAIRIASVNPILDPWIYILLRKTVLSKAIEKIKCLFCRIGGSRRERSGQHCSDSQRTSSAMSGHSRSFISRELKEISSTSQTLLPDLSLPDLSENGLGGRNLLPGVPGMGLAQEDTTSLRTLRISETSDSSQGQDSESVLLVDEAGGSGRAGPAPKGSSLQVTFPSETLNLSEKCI
T6 sequence (P43119 whole entry): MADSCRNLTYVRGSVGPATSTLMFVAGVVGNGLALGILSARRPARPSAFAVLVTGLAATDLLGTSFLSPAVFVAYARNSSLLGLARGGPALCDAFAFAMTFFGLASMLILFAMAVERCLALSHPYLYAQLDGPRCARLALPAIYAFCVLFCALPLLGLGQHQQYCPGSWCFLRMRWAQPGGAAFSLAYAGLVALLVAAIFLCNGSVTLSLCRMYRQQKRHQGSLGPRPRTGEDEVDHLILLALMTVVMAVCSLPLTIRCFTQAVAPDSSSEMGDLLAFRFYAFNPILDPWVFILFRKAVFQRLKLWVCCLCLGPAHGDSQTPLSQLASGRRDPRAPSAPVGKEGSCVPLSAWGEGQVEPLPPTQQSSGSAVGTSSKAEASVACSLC
T4 sequence (P43116 whole entry): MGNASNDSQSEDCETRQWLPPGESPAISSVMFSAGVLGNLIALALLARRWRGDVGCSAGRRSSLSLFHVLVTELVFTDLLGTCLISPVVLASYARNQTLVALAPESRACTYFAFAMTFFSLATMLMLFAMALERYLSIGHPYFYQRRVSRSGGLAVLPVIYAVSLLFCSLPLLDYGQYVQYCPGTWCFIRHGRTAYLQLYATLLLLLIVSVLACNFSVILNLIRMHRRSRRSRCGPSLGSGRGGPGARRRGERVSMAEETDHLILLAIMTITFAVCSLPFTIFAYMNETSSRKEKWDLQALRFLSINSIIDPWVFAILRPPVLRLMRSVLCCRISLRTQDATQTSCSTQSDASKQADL
T1 sequence (P43088 whole entry): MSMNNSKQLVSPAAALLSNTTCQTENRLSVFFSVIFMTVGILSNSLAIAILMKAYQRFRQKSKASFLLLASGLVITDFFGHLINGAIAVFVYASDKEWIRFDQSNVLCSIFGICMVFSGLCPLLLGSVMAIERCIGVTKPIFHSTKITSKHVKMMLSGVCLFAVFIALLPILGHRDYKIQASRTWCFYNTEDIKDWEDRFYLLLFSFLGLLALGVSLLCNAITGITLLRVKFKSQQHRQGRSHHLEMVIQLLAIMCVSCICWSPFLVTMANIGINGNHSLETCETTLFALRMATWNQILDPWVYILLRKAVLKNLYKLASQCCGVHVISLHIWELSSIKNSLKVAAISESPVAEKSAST

SMILES	Kb [1]	Kb [2]	Kb [3]	Kb [4]	Kb [5]	Kb [6]	Kb [7]	EP2 (FLIPR) Kb [4]	EP4 (FLIPR) Kb [5]	IP (FLIPR) Kb [6]	TP (FLIPR) Kb [7]	DP1 (FLIPR) Kb [2]	EP1 (FLIPR) Kb [3]
COc1ccc(COc2ccc(Cl)cc2Cn2nc(CCC(=O)O)cc2C)cc1 [Example 31, 3-[1-(5-Chloro-2-(4-methoxybenzyloxy)benzyl)-5-methyl-1H-pyrazol-3-yl]-propionic acid]	200 nM	300 nM	300 nM	2500 nM	7400 nM	1200 nM	9 nM						
Cc1cc(CCC(=O)O)nn1Cc1cc(Cl)ccc1OC(CC(C)C)CC(C)C [Example 23, 3-[1-(5-Chloro-2-(1-isobutyl-3-methylbutoxy)benzyl)-5-methyl-1H-pyrazol-3-yl]-propionic acid]		160 nM	1500 nM					PAg	Ag	Ag	Ag		
Cc1cc(CCC(=O)O)nn1Cc1cc(Cl)ccc1OCCC1CCCC1 [Example 39, 3-[1-(5-Chloro-2-(2-cyclopentylethoxy)benzyl)-5-methyl-1H-pyrazol-3-yl]-propionic acid]	300 nM							PAg	PAg	PAg	PAg	PAg	PAg
Cc1cc(CCC(=O)O)nn1Cc1cc(Br)ccc1OCC1CCC1 [Example 12, 3-[1-(5-Bromo-2-(2-cyclobutylmethoxy)-benzyl)-5-methyl-1H-pyrazol-3-yl]-propionic acid]	30 nM	110 nM	30 nM	1700 nM	500 nM	3600 nM	30 nM						
Cc1cc(CCC(=O)O)nn1Cc1cc(Cl)ccc1OCCCCC(C)C [Example 36, 3-[1-(5-Chloro-2-(5-methylhexyloxy)benzyl)-5-methyl-1H-pyrazol-3-yl]-propionic acid]	170 nM							PAg	Ag	Ag	Ag	PAg	Ag
Cc1cc(CCC(=O)O)nn1Cc1cc(Cl)ccc1OCCC(C)C [Example 21, 3-[1-(5-Chloro-2-(3-methylbutoxy)benzyl)-5-methyl-1H-pyrazol-3-yl]-propionic acid]	225 nM		350 nM	8200 nM	1000 nM	5530 nM	30 nM					PAg	
Cc1cc(CCC(=O)O)nn1Cc1cc(Cl)ccc1OCC(C)C [Example 42, 3-[1-(5-Chloro-2-(2-methylpropyloxy)benzyl)-5-methyl-1H-pyrazol-3-yl]-propionic acid]	180 nM	260 nM	30 nM	2500 nM	1600 nM		40 nM						
Cc1cc(CCC(=O)O)nn1Cc1cc(Cl)ccc1OCc1ccc(Cl)cc1C(F)(F)F [Example 29, 3-[1-(5-Chloro-2-(4-chloro-2-trifluoromethylbenzyloxy)benzyl)-5-methyl-1H-pyrazol-3-yl]-propionic acid]	5900 nM	790 nM	70 nM	9800 nM						PAg	Ag		
Cc1cc(CCCCC(=O)O)nn1Cc1cc(Cl)ccc1OCC1CCCC1 [Example 41, 5-[1-(5-Chloro-2-cyclopentylmethoxybenzyl)-5-methyl-1H-pyrazol-3-yl]-pentanoic acid]	200 nM		350 nM	8200 nM	1000 nM	5500 nM	30 nM					PAg	
CCC(CC)COc1ccc(OC(F)(F)F)cc1Cn1nc(CCC(=O)O)cc1C [Example 48, 3-[1-[2-(2-Ethyl-butoxy)-5-trifluoromethoxy-benzyl]-5-methyl-1H-pyrazol-3-yl]-propionic acid]	150 nM		80 nM	3000 nM	400 nM	2300 nM	40 nM					PAg	
